The target in one test is T1, menin-MLL interaction (Homo sapiens, UniProt O00255).
T1 sequence (O00255 1-610): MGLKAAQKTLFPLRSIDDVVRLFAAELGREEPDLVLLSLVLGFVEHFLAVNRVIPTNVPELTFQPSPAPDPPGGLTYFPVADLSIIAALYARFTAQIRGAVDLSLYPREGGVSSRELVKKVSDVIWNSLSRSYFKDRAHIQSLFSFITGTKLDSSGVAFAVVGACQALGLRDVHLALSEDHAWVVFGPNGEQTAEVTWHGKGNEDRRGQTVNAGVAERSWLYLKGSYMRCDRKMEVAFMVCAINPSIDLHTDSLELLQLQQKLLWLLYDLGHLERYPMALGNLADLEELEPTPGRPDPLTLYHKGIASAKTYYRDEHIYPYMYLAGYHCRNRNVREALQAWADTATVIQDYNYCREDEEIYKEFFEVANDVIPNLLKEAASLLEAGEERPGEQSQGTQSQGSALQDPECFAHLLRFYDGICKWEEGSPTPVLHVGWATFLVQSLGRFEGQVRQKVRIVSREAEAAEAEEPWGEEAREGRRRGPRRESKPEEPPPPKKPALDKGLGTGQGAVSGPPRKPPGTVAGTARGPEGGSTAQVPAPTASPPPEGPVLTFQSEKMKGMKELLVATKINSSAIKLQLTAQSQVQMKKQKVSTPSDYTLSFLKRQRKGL
The experiment in a line: biochemical.

The target in test [1] is T2, menin-MLL-AF9 interaction (Homo sapiens, UniProt O00255).
T2 construct: performed in HEK293 cells transfected with MLL-AF9; endogenous in cells; host or cells: HEK293
T2 sequence (O00255 1-610): T1 sequence (O00255 1-610)
The experiment in a line: Co-Immunoprecipitation (co-IP) in HEK293 cells transfected with MLL-AF9. Type of test: cell-based. Particulars: FIG. 2.

Test [2] concerns Hoxa9 and Meis1 expression in MLL-AF9 BMC. The experiment in a line: qRT-PCR of Hoxa9 and Meis1. Format: cell-based, mouse. Particulars: FIG. 10. (In general: Quantitative PCR measures a nucleic acid by following its amplification.)
In test [3] the test system is MLL-AF9 transformed mouse bone marrow cells (BMC). The experiment in a line: MTT cell viability assay in transformed BMC. Format: cell-based. Particulars: 72 h incubation, E2H-HLF transformed BMC as negative control, FIG. 3. On the technique in general: Tetrazolium assays rely on reduction of a dye to a coloured formazan, in cell work by metabolically active cells.
For the next test, the target named is T3, menin (Homo sapiens, UniProt O00255).
T3 sequence (O00255 1-610): T1 sequence (O00255 1-610)
In words: Isothermal Titration calorimetry (ITC). Format: binding. Particulars: FIG. 1. On the technique in general: Isothermal titration calorimetry measures the heat released or taken up as one component is titrated into another.

Test [4] deals with human MLL leukemia cell lines. The experiment in a line: Growth / MTT cell viability in human MLL leukemia cell lines. Format: cell-based.
The subject of test [5] is MLL-AF9 BMC. In words: Colony formation assay. Format: cell-based, mouse. Particulars: FIG. 7.
Test [6] deals with mice model of MLL-AF9 leukemia. The experiment in a line: In vivo efficacy in mice model of MLL-AF9 leukemia. Particulars: once daily i.p. injections of 75 mg/kg, FIG. 18.
Test [7] relates to MLL-AF9 BMC. The experiment in a line: Differentiation (CD11b expression, cell morphology). Type of test: cell-based, mouse. Particulars: change in CD11b expression and cell morphology, FIGS. 8, 9.
The test system of the next test is MLL-AF9 transformed BMC. The experiment in a line: Growth curves experiments in transformed BMC. Type of test: cell-based, mouse. Particulars: MLL-AF9 BMC vs Hoxa9/Meis1 transformed BMC (negative control), FIG. 5.
Test [8] deals with non-MLL leukemia cell lines. In words: Growth in non-MLL leukemia cell lines. Type of test: cell-based. Particulars: FIG. 13B.

The structures appear in SMILES notation. pIC50: −log10 of the molar value.

From the text for menin-MLL interaction: Fluorescence Polarization Assay.
Compounds that inhibit the interaction decrease the fluorescence anisotropy which is being used as a read-out for compound screening and for IC50 determination.

With `CC1(C)CN=C(N2C[C@@H]3C[C@H]2CN3c2ncnc3sc(CC(F)(F)F)cc23)S1` (racemic) [Compound 14], on menin-MLL interaction, the negative-log IC50 (pIC50) – broadly, the negative decadic logarithm of the IC50, by convention in mol/L – is 6.29 to 7.00.
Regarding `CC1(C)CN=C(N2CCN(c3ncnc4sc(CC(F)(F)F)cc34)CC2)S1` [Compound 1, 4-(4-(5,5-dimethyl-4,5-dihydrothiazol-2-yl)piperazin-1-yl)-6-(2,2,2-trifluoroethyl)thieno[2,3-d]pyrimidine], the “inhibition of the menin-MLL-AF9 interaction” value (“inhibition” for short) in test [1] is listed as “inhibition of the menin-MLL-AF9 interaction”. The “expression of downstream targets of MLL fusion proteins: Hoxa9 and Meis1” value (“expression” for short) in test [2] is listed as “downregulate expression”. In [3], the “proliferation of MLL leukemia cells” value is “selectively inhibit proliferation”. For the same molecule, the binding to menin entry at menin was “direct binding”.
As to `FC(F)(F)Cc1cc2c(NC3CCN(Cc4ccccc4)CC3)ncnc2s1` [Compound 108], in [1], the “inhibition” value is given as “inhibition of the menin-MLL-AF9 interaction”. The “growth of human MLL leukemia cell lines” value in test [4] (MTT, 3 days of incubation, FIG. 11) was “selectively inhibit growth”. Also, in the test on MLL-AF9 BMC [5], the morphology of colonies entry is “changes morphology of colonies”. For the same molecule, the colony number entry with MLL-AF9 BMC [5] (each round 7 days) was “reduces colony number”. In addition, in test [2], the “expression” value is “downregulate expression”. The “proliferation of MLL leukemia cells” value in [3] was “selectively inhibit proliferation”. The “survival of leukemic mice” value in [6] was “Increase in survival”.
With `CC(F)(F)Cc1cc2c(NC3CCN(Cc4ccccc4)CC3)ncnc2s1` [Compound 155], the pIC50 against menin-MLL interaction is 5.70 to 6.30.
For `N#Cc1cc2cc(CN3CCC(Nc4ncnc5sc(CC(F)(F)F)cc45)CC3)ccc2[nH]1` [Compound 175, 5-((4-((6-(2,2,2-trifluoroethyl)thieno[2,3-d]pyrimidin-4-yl)amino)piperidin-1-yl)methyl)-1H-indole-2-carbonitrile], in test [1], the “inhibition” value was “inhibition of the menin-MLL-AF9 interaction”. Also, in test [4] (FIG. 13A), the “growth of human MLL leukemia cell lines” value was “selectively inhibits growth”. Moreover, the “expression” value in test [2] is “downregulate expression”. Also, in the test on MLL-AF9 BMC [7], the differentiation result is “Differentiation induced”. Further, the “selectivity towards MLL fusion protein transformed cells” value with MLL-AF9 transformed BMC was “great selectivity”. The “effect in non-MLL leukemia cell lines” value in test [8] is reported as “limited effect”.
